Experimental data: patent US12251427B2, “Reduced oxygen carriers and their use for the treatment of carboxyhemoglobinemia” (priority 2016, dated 2025)

Key:
[1] = LD50 dose in mice (calculated); details: mice of approximately 25 g
[2] = cited from earlier work
[3] = rats; cited from earlier work
HbCO = HbCO removal in CO poisoned mice (1500 ppm CO, moderate CO poisoning model); assay type: in vivo; details: after 5 minutes of return to normal air, 250 μL of 8-12 mM infused
Experimental: FIG. 1 is a graph showing the in vivo binding of CO from hemoglobin by recombinant neuroglobin in a mouse model for moderate CO poisoning.
(§1) It was previously shown that exposure of mice to air with 1500 ppm CO gas for an average of 50 minutes caused HbCO levels to increase to 64%+/−1% (PCT Publication No. WO 2014/150413). Prior to exposure, mice were surgically instrumented with placement of femoral artery and vein catheters for blood pressure monitoring, blood sampling and infusions of either recombinant neuroglobin (rNgb), another type of CO scavenging globin protein, or PBS as a control. Mice were infused with 250 μL of 8-12 mM rNgb or PBS within 4 minutes using a Harvard infusion pump. Immediately after infusion and every 5 minutes, 5 μL of blood was collected for measurement of HbCO. […] In particular, after 5 minutes of return to normal air, the HbCO levels dropped by an average of 32.8% in the group that received rNgb versus 13.3% in the group that received PBS (FIG. 1).

[4] = rNgb found in urinary bladder after infusion; assay type: in vivo; details: after 60 minutes, mice sacrificed
Experimental: as §1

Molecule: O=S([O-])S(=O)[O-].[Na+].[Na+] [Dithionite, sodium dithionite]
- LD50 dose in mice [1]: about 62.5 mg
- predicted human LD50 [2]: 500 mg/kg
- LD50 [3]: 2500 mg/kg body weight

B1: rNgb: recombinant neuroglobin, another type of CO scavenging globin protein (protein, UniProt Q9NPG2 1-151, looked up)
Neuroglobin: MERPEPELIRQSWRAVSRSPLEHGTVLFARLFALEPDLLPLFQYNCRQFSSPEDCLSSPEFLDHIRKVMLVIDAAVTNVEDLSSLEEYLASLGRKHRAVGVKLSSFSTVGESLLYMLEKCLGPAFTPATRAAWSQLYGAVVQAMSRGWDGE
- drop of HbCO levels (HbCO): 32.8%
- rNgb in urinary bladder [4]: millimolar concentrations
